According to ChEMBL document CHEMBL4373717, “Coumarin-containing hybrids and their anticancer activities” (Eur J Med Chem, 2019):
pIC50: −log10 of the molar value. Each block holds one compound with its values, some of them ahead of it.

How the values were obtained:
Format in all cases: functional, cell-based
[1] = test system: MCF7; experiment: Cytotoxicity against human MCF7 cells assessed as reduction in cell viability after 68 hrs by MTT assay; conditions: MCF7, 68 h
[2] = test system: HeLa; experiment: Cytotoxicity against human HeLa cells assessed as reduction in cell viability after 68 hrs by MTT assay
[3] = test system: K562; experiment: Cytotoxicity against human K562 cells assessed as reduction in cell viability after 68 hrs by MTT assay; conditions: K562, 68 h
[4] = test system: A549; experiment: Cytotoxicity against human A549 cells assessed as reduction in cell viability after 68 hrs by MTT assay; conditions: A549, 68 h
[5] = test system: MDA-MB-231; experiment: Cytotoxicity against human MDA-MB-231 cells assessed as reduction in cell viability after 24 hrs by MTT assay
[6] = test system: A549; experiment: Cytotoxicity against human A549 cells assessed as reduction in cell viability after 24 hrs by MTT assay; conditions: A549, 24 h
[7] = test system: MDA-MB-231; experiment: Anticancer activity against human MDA-MB-231 cells by MTT assay
[8] = test system: 769-P; experiment: Anticancer activity against human 769-P cells by MTT assay
[9] = test system: HepG2; experiment: Anticancer activity against human HepG2 cells by MTT assay

SMILES: CCOc1cc(Br)cc2c1OCC([N+](=O)[O-])=C2
pIC50 [1]: 5.19 to 6.02
pIC50 [2]: 5.19 to 6.02
pIC50 [3]: 5.19 to 6.02
pIC50 [4]: 5.19 to 6.02

SMILES: COc1ccccc1-c1cc(-c2cc3ccccc3oc2=O)nc(Cc2ccc(F)cc2)n1
pIC50 ([5]; Homo sapiens, MDA-MB-231, 24 h): 4.54 to 5.67
pIC50 [6]: 4.54 to 5.67

SMILES: COc1ccccc1NC(=O)Nc1ccc(Cc2c(C)c3cc(C(C)(C)C)c(O)cc3oc2=O)cn1
pIC50 [1]: 4.71 to 5.78
pIC50 [2]: 4.71 to 5.78
pIC50 [3]: 4.71 to 5.78
pIC50 [4]: 4.71 to 5.78

pIC50 [7]: 4.87 to 6.42
pIC50 [9]: 4.87 to 6.42
SMILES: O=c1ccc2ccc(OCCCn3cc(COc4ccc5ccc(=O)oc5c4)nn3)cc2o1
pIC50 [8]: 4.87 to 6.42

SMILES: O=c1oc2ccccc2cc1-c1cc(-c2cccc(Cl)c2)nc(Cc2ccc(F)cc2)n1
pIC50 ([5]; Homo sapiens, MDA-MB-231, 24 h): 4.54 to 5.67
pIC50 [6]: 4.54 to 5.67

pIC50 [7]: 4.87 to 6.42
pIC50 [9]: 4.87 to 6.42
SMILES: Cc1cc(=O)oc2cc(OCc3cn(CCCCCCCCCOc4ccc5ccc(=O)oc5c4)nn3)ccc12
pIC50 [8]: 4.87 to 6.42

SMILES: O=c1oc2ccccc2cc1-c1cc(-c2ccccc2Br)nc(Cc2ccc(F)cc2)n1
pIC50 ([5]; Homo sapiens, MDA-MB-231, 24 h): 4.54 to 5.67
pIC50 [6]: 4.54 to 5.67

SMILES: O=c1oc2ccccc2cc1-c1cc(-c2ccccc2Cl)nc(Cc2ccc(F)cc2)n1
pIC50 ([5]; Homo sapiens, MDA-MB-231, 24 h): 4.54 to 5.67
pIC50 [6]: 4.54 to 5.67

pIC50 [7]: 4.87 to 6.42
pIC50 [9]: 4.87 to 6.42
SMILES: Cc1cc(=O)oc2cc(OCc3cn(CCCCCCCCCCOc4ccc5ccc(=O)oc5c4)nn3)ccc12
pIC50 [8]: 4.87 to 6.42

pIC50 [7]: 4.87 to 6.42
pIC50 [9]: 4.87 to 6.42
SMILES: Cc1cc(=O)oc2cc(OCc3cn(CCCCOc4ccc5ccc(=O)oc5c4)nn3)ccc12
pIC50 [8]: 4.87 to 6.42

pIC50 [7]: 4.87 to 6.42
pIC50 [9]: 4.87 to 6.42
SMILES: Cc1cc(=O)oc2cc(OCc3cn(CCCOc4ccc5ccc(=O)oc5c4)nn3)ccc12
pIC50 [8]: 4.87 to 6.42

SMILES: Cc1ccccc1-c1cc(-c2cc3ccccc3oc2=O)nc(Cc2ccc(F)cc2)n1
pIC50 ([5]; Homo sapiens, MDA-MB-231, 24 h): 4.54 to 5.67
pIC50 [6]: 4.54 to 5.67

SMILES: Cc1c(Cc2ccc(NC(=O)Nc3ccc(F)c(Cl)c3)nc2)c(=O)oc2cc(O)c(C(C)(C)C)cc12
pIC50 [1]: 4.71 to 5.78
pIC50 [2]: 4.71 to 5.78
pIC50 [3]: 4.71 to 5.78
pIC50 [4]: 4.71 to 5.78

SMILES: Cc1cccc(-c2cc(-c3cc4ccccc4oc3=O)nc(Cc3ccc(F)cc3)n2)c1
pIC50 ([5]; Homo sapiens, MDA-MB-231, 24 h): 4.54 to 5.67
pIC50 [6]: 4.54 to 5.67

SMILES: COc1ccc(-c2cc(-c3cc4ccccc4oc3=O)nc(Cc3ccc(F)cc3)n2)cc1
pIC50 ([5]; Homo sapiens, MDA-MB-231, 24 h): 5.65
pIC50 [6]: 5.65

SMILES: Cc1cccc(C)c1NC(=O)c1ccc(-n2cc(COc3cc(=O)oc4ccccc34)nn2)cc1
pIC50 ([5]; mda-mb-231): 4.04 to 7.52

SMILES: COc1ccc(OC)c(NC(=O)c2ccc(-n3cc(COc4cc(=O)oc5ccccc45)nn3)cc2)c1
pIC50 ([5]; mda-mb-231): 4.04 to 7.52

SMILES: Cc1ccc(-c2cc(-c3cc4ccccc4oc3=O)nc(Cc3ccc(F)cc3)n2)cc1
pIC50 ([5]; Homo sapiens, MDA-MB-231, 24 h): 4.54 to 5.67
pIC50 [6]: 4.54 to 5.67

SMILES: O=C(Nc1ccccc1)c1ccc(-n2cc(COc3cc(=O)oc4ccccc34)nn2)cc1
pIC50 ([5]; mda-mb-231): 4.04 to 7.52

SMILES: O=c1oc2ccccc2cc1-c1cc(-c2cccc(Br)c2)nc(Cc2ccc(F)cc2)n1
pIC50 ([5]; Homo sapiens, MDA-MB-231, 24 h): 4.54 to 5.67
pIC50 [6]: 4.54 to 5.67

SMILES: COC(=O)c1cccc(NC(=O)c2ccc(-n3cc(COc4cc(=O)oc5ccccc45)nn3)cc2)c1
pIC50 ([5]; mda-mb-231): 4.04 to 7.52

pIC50 [7]: 4.87 to 6.42
pIC50 [9]: 4.87 to 6.42
SMILES: O=c1ccc2ccc(OCCCCCCn3cc(COc4ccc5ccc(=O)oc5c4)nn3)cc2o1
pIC50 [8]: 4.87 to 6.42

SMILES: CCc1ccccc1NC(=O)c1ccc(-n2cc(COc3cc(=O)oc4ccccc34)nn2)cc1
pIC50 ([5]; mda-mb-231): 4.04 to 7.52

pIC50 [7]: 4.87 to 6.42
pIC50 [9]: 4.87 to 6.42
SMILES: Cc1cc(=O)oc2cc(OCc3cn(CCCCCCOc4ccc5ccc(=O)oc5c4)nn3)ccc12
pIC50 [8]: 4.87 to 6.42

SMILES: Cc1ccc(NC(=O)Nc2ccc(Cc3c(C)c4cc(C(C)(C)C)c(O)cc4oc3=O)cn2)cc1C
pIC50 [1]: 4.71 to 5.78
pIC50 [2]: 4.71 to 5.78
pIC50 [3]: 4.71 to 5.78
pIC50 [4]: 4.71 to 5.78
